Source: a melting point compilation (Tetko et al.; mined from patent text by program, amines drawn as free bases though some values may be those of a salt)

melting point | Structure (SMILES)
115 to 116 °C | CN(C(=O)OC(C)(C)C)c1cc(Oc2ccc(-n3ccnc3)cc2)ccc1N
139 to 146 °C | CC1(C)CC(NC(=O)ON(Cc2ccccc2)Cc2ccccc2)CC(C)(CNC(=O)ON(Cc2ccccc2)Cc2ccccc2)C1 (stereo not given)
145 °C | CCCCCCCC(c1cc(C)cc(N=Nc2ccc(C)cc2[N+](=O)[O-])c1O)c1cc(C)cc(N=Nc2ccc(C)cc2[N+](=O)[O-])c1O (stereo not given)
189 to 195 °C | C=CCc1c(OC(C)=O)c2cccnc2n(-c2ccccc2)c1=O
151 to 153 °C | COc1ccc(-c2nn(Cc3ccc(Cl)cc3Cl)c(=O)cc2-c2ccncc2)cc1
143 to 145 °C | O=C1N(Cc2ccc(C(F)(F)F)o2)c2ccccc2C12COc1ccc(Br)cc12 (stereo not given)
136 to 139 °C | NCc1cccc2nnsc12
131 to 133 °C | COC(=O)CSc1cccc(NC(=O)NCC(=O)N(CC(=O)OC(C)(C)C)c2ccccc2C(=O)c2ccccc2)c1
218 to 221 °C | COc1ccccc1NC(=O)Nc1nc(Nc2ccccc2-c2ccccc2)nc(N(CCC(=O)O)Cc2cccc3ccccc23)n1
85 to 95 °C | CCCCCNC(=O)C(C)Cc1ccc2c(c1)c(Cc1ccc(C(=O)O)cc1OC)cn2C (stereo not given)
141 to 143 °C | COc1cc2c(Nc3ccc(Cl)cc3F)ncnc2cc1O
167 to 168 °C | O=Cc1c2n(c3ccccc13)CCNCC2
162 to 165 °C | O=Cc1csc(NCc2ccccc2)n1
83 to 84 °C | Cc1ccc(CCC(C)NCC(O)c2cc3ccccc3o2)cc1 (stereo not given)
229 to 230 °C | N#Cc1cc(-c2ccc(C(F)(F)F)cc2)ccc1-n1cc(-c2cc(F)cc(F)c2)nn1
132 to 134 °C | Cn1nc(-c2ccccc2)nc1-c1ccncc1
292 to 295 °C | Cn1cc2c(c(C#N)c1=O)Nc1ccccc1S2
166 to 168 °C | O=c1ccn(C2=CCN(Cc3ccc(Br)cc3)C=C2)cc1
105 to 107 °C | CCC1(CCCCl)C(=O)Nc2ccc(Cl)cc21 (stereo not given)
158 to 160 °C | Cc1c(SC(=S)N(C)C)sn(-c2ccccc2)c1=O
> 250 °C | CCCCCCc1cc(-c2nc(-c3cc(CCCCCC)c(O)cc3O)nc(-c3cc(CCCCCC)c(O)cc3O)n2)c(O)cc1O
286 to 287 °C | COc1ccc(C(=O)NCc2ccc(C(=O)O)cc2)cc1C12CC3CC(CC(C3)C1)C2
48 to 49.5 °C | CCOc1ccc(Cl)c([N+](=O)[O-])c1
45 to 47 °C | C[C@@H](CN1C(=O)c2ccccc2C1=O)CC(F)(F)F

melting point | Structure (SMILES)
148 to 149 °C | O=C(NCCCO)c1cccc(-c2cccn3c(=O)n(Cc4cccc(C(F)(F)F)c4)nc23)c1
116 to 118 °C | Cc1cc(C(=O)NC2CC(C)(C)NC(C)(C)C2)c(C)o1
131 °C | CNS(=O)(=O)c1c(C)cc(OC)cc1C
235 °C | O=C(c1ccc(Cl)cc1)N1CCc2cc(S(=O)(=O)N3CC(c4ccccc4)NC3=O)ccc21 (stereo not given)
228 to 230 °C | CCC(CC)c1ccc(Cl)c2nc3n(c12)CCCN3c1cnc(N(C)C)cc1C
123 °C | CC(=O)c1ccccc1NC(C)c1c(Cl)cccc1Cl (stereo not given)
147 to 148 °C | CCC1(C)OC(c2ccc(S(C)(=O)=O)cc2)=C(c2ccc(C(C)=O)cc2)C1=O (stereo not given)
152 to 155 °C | CCOC(=O)CCC(=O)c1cnc2c(OC)cccc2c1NCc1ccccc1C
177 to 180 °C | O=[N+]([O-])c1ccc(S(=O)(=O)c2ccc(Cl)cc2)nc1
160 to 161 °C | N#Cc1cccc(C(=O)Nc2cccc(-n3nc(C(F)(F)F)cc3C(F)(F)F)c2)c1
96 to 99 °C | CC(=C1C(=O)N(c2cccc(C)c2)c2ccccc21)N(C)C
297 to 298 °C | CN(C)c1ccc(-c2cc3nccnc3[nH]2)cc1
82.5 to 83.5 °C | CC(O)c1ccc(-c2ccc(Cl)c(Cl)c2)o1 (stereo not given)
250 to 255 °C | NC(=O)COC(=O)c1ccc(O)cc1
114 °C | Cc1cccc(C)c1OCC1CN=C(N)O1 (stereo not given)
134 to 138 °C | COc1ccc(CNc2nc(Cl)ccc2C=O)cc1Cl
109 to 111 °C | CCCC(C)(CCC)C(=O)O[C@H]1C[C@H](O)C=C2C=C[C@H](C)[C@H](CC[C@@H]3C[C@@H](O)CC(=O)O3)[C@H]21
180 to 183 °C | COc1cccc2c(=O)c(O)coc12
122 °C | NC(=O)c1ccc2ccccc2c1-c1c(P(=O)(c2ccccc2)c2ccccc2)ccc2ccccc12
5 °C | CCCCCC1CCN([C@H]2CC[C@H](C(=O)OC)CC2)CC1
120 to 121 °C | CCOC(=O)CCCC(=O)c1ccc(-c2ccc(C)cc2)s1
221 to 223 °C | Cc1cc(NCc2ccc(-c3ccccc3C#N)cc2)n2nccc2n1
> 300 °C | Cc1nc(-n2ccc(OCc3ccc(F)cc3)cc2=O)sc1C(=O)O
205 to 207 °C | Cc1cc(C(N)C(=O)O)ccc1O (stereo not given)

melting point | Structure (SMILES)
> 270 °C | CCCC1=C(C#N)C(c2ccccc2Cl)c2c(n[nH]c2C(C)(C)C)N1 (stereo not given)
147 to 150 °C | CS(=O)(=O)Nc1cccc(Nc2nc(NCC3CCCCN3)c3nc[nH]c3n2)c1 (stereo not given)
147 °C | CN(C)c1ccc(CNC(=O)C(Cc2ccccc2)NC(=O)Nc2ccc(C(=N)N)cc2)cc1 (stereo not given)
140 to 141 °C | NC(=S)NNC(=O)CCCCc1ccccc1
172 to 174 °C | CCOCc1nc2c(N)nc3cc(N4CCCCS4(=O)=O)ccc3c2n1CCCOC(C)C
152 to 160 °C | NC(=O)c1ccc(F)c2c1CC(N(CCCc1c[nH]c3ccc(Cl)cc13)C1CCC1)CO2 (stereo not given)
119 to 120 °C | O=C1CC(CCO)c2ccccc2N1 (stereo not given)
73 to 75 °C | O=c1c2ccccc2ccc2cc(CCO)ccc12
322 to 325 °C | Cn1ccc2c3c(c(I)cc21)C(=O)NC3=O
215 to 216 °C | CCOc1nc(N(C)C)nc(=O)[nH]1
131 °C | COc1ccc(C2=NOC(C)(/C(N)=C/OC(C)=O)C2)cc1OC1CCCC1 (stereo not given)
75 °C | c1cc(OCC2CO2)c2nonc2c1 (stereo not given)
59 °C | O=[N+]([O-])CS(=O)(=O)c1ccccc1F
120 to 121 °C | O=c1oc2cc(OCC3CO3)ccc2c2c1CCCC2 (stereo not given)
89 to 92 °C | CC(C)CCn1c(=O)c2c(Cl)cc(Cl)cc2n(Cc2ccccc2)c1=O
90 °C | N#CC(O)c1c(Cl)cccc1Cl (stereo not given)
103 to 105 °C | COc1cc2c(cc1C)CCN(C)C2C1(c2ccsc2)CC1 (stereo not given)
76 to 79 °C | COc1ccc(C(=O)Cc2cc(OC)ccc2OC)c(Br)c1
166 to 167 °C | O=C(O)c1ccccc1NC(=S)Cc1ccccc1
166 °C | O=C(NCCCCN1CCC(Oc2cccc3ccccc23)CC1)c1ccc(-c2ccc(C(F)(F)F)cc2)cc1
158 to 159 °C | Fc1ccc(C2OC3(CCN(Cc4ccccc4)CC3)N3CCCCC23)cc1 (stereo not given)
230 to 232 °C | O=C1CCC(N2Cc3c(OCc4ccc(CCN5CCOCC5)cc4)cccc3C2=O)C(=O)N1 (stereo not given)
330 °C | O=c1[nH]c2ccc(C(F)(F)F)cc2[nH]c1=O
210 to 217 °C | Cc1ccccc1C=CC=C1SC(=S)N(CC(=O)O)C1=O

melting point | Structure (SMILES)
161 to 162 °C | COc1cc(C)nc(NC(=O)NS(=O)(=O)c2ccccc2NC(C)=O)n1
145 to 146 °C | O=S(=O)(c1ccccc1)c1ccc(Oc2ccc(Cl)c(Cl)c2)cc1
> 315 °C | CCCn1c(=O)n2c(-c3ccc(C(=O)O)cc3)nnc2c2c1ncn2C
194 to 196 °C | O=C(O)C1Cc2cc3c(-c4ccccc4F)noc3cc2O1 (stereo not given)
141 °C | CC(C)(C)C(=O)C(=C1SCCS1)n1cncn1
> 250 °C | CCOC(=O)C1=C(C)NC(c2cnc(NC(C)=O)s2)=NC1c1ccc(F)cc1Cl (stereo not given)
122 °C | N#CCc1cccc2c(-c3ccc(Br)cc3)nccc12
124 to 125 °C | Clc1nc(-c2ccncc2)cs1
60 to 64 °C | O=C(NCC(F)(F)F)C1(CCCCc2ccc(NS(=O)(=O)c3ccccc3[N+](=O)[O-])cc2)c2ccccc2-c2ccccc21
74 to 75.5 °C | CCSc1c2ccccc2c(C=O)c2ccccc12
222 to 224 °C | O=C(/C=C/c1ccc(NC(=O)Cc2cccc3ccccc23)cc1)NO
122 to 123 °C | COc1ccc(Cc2ccc(NC3=NCCN3)cc2)s1
136 °C | O=C(O)Cc1ccc2c(c1)C(c1ccccc1)C(=O)O2 (stereo not given)
98 to 99 °C | COc1ccc(-c2ncsc2-c2ccc(OC)cc2)cc1
125 to 150 °C | CC(C)(C)[NH+]([O-])C(=O)Nc1ccnc(-c2ccncc2)n1 (stereo not given)
126 to 128 °C | Cn1cc([N+](=O)[O-])nc1C(=O)Cl
114 to 118 °C | CCCCCCCCC1CC(c2ccc(-c3ccc(CCCCC)cc3)cc2)OC1=O (stereo not given)
47 to 49 °C | CCCC[C@H](OCC[C@]1(C(=O)N2CCC(OCOC)CC2)C=CC=CC1)C(=O)N[C@@H](CC1CCCCC1)[C@@H](O)C(F)(F)CN(C)C
268 to 270 °C | Cc1cc(C)n(-c2nc(Nc3ccc(-c4ccccc4)cc3)c3ccccc3n2)n1
158 to 159 °C | CCOc1cc(CN2C(=O)c3ccccc3C2=O)c2c(c1)Oc1c(ccc(OCC)c1CO[Si](C)(C)C(C)(C)C)N2CC
105 to 106 °C | CCOC(=O)/C=C/c1cn(-c2ccc(Cl)cn2)nc1C(C)C

Structure (SMILES) | melting point
O=C1CCC(c2ccc(-n3ccnc3)nc2)=NN1 | 276 to 278 °C
CCC(C)(Cc1cn(C)c2ccc(OC)cc12)[N+](=O)[O-] (stereo not given) | 95 to 96 °C
CCOc1ccccc1C(=O)NC(=O)NC1CN2CCC1CC2 (stereo not given) | 198 to 199 °C
COc1ccc(-n2c(S)nc3cc(OC)cc(OC)c3c2=O)cc1 | 322 to 326 °C
Cc1c(C(=O)Nc2ccc(OCC(C)(C)C)c(C#N)c2)cnn1C1CCCCC1 | 126 to 128 °C
CCCN(CCC)Cc1nc(-c2ncn3c2CN(C)C(=O)c2c-3cccc2C(F)(F)F)no1 | 216 to 218 °C
CCCN(CCC)Cc1nc(-c2ncn3c2CN(C)C(=O)c2ccccc2-3)no1 | 130 to 132 °C
